The test system of this assay is adipocyte fatty acid-binding protein aP2. The assay can be described thus: aP2 protein expression in LPS induced THP-1 monocyte-macrophage cells (immuno-western blot). Particulars: THP-1 cells pre-treated 2 h, then LPS; extracts 5 or 10 μg/ml, 5-Loxin 5 μg/ml, montelukast 1 μM, NDGA 10 μM. The format is cell-based, human.

Procedure: In this experiment, THP-1 human monocyte-macrophage cells were pre-treated with 5 or 10 μg/ml of each ingredient for 2 h and thereafter printed with LPS to induce the inflammatory response. The cellular proteins were extracted by cell lysis buffer and subjected to Immuno-Western blot to detect the modulation of expression of aP2 protein.
The cellular proteins were extracted by cell lysis buffer and subjected to immuno-western blot to detect the modulation of expression of aP2 protein.
Similar experiment was also conducted on Aegle marmelos, Zingiber officinale and G. mangostana extracts.

Regarding `CC(Cc1ccc(O)c(O)c1)C(C)Cc1ccc(O)c(O)c1` (stereo not shown) [NDGA, Nordihydroguaiaretic Acid], the “inhibition of LPS induced aP2 protein expression” value was “significantly reduced”.

These data come from patent publication US8226989B2, “Anti-adipocyte fatty acid-binding protein (AP2), anti-flap and anti-CySLT1 receptor herbal compositions” (Laila Impex, priority 2008, dated 2012).
